Test results published in ChEMBL document CHEMBL1201862, “PubChem BioAssay data set” (2004).
Activity calls are given as the source filed them.

How the values were obtained:
[1] = target: T1, Sentrin-specific protease 6 (Homo sapiens, UniProt Q9GZR1); type: functional;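 also: Luminescence-based dose-response confirmatory assay of SENP6 inhibition, following up an ultra-high-throughput screen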
T1 sequence (Q9GZR1 whole entry): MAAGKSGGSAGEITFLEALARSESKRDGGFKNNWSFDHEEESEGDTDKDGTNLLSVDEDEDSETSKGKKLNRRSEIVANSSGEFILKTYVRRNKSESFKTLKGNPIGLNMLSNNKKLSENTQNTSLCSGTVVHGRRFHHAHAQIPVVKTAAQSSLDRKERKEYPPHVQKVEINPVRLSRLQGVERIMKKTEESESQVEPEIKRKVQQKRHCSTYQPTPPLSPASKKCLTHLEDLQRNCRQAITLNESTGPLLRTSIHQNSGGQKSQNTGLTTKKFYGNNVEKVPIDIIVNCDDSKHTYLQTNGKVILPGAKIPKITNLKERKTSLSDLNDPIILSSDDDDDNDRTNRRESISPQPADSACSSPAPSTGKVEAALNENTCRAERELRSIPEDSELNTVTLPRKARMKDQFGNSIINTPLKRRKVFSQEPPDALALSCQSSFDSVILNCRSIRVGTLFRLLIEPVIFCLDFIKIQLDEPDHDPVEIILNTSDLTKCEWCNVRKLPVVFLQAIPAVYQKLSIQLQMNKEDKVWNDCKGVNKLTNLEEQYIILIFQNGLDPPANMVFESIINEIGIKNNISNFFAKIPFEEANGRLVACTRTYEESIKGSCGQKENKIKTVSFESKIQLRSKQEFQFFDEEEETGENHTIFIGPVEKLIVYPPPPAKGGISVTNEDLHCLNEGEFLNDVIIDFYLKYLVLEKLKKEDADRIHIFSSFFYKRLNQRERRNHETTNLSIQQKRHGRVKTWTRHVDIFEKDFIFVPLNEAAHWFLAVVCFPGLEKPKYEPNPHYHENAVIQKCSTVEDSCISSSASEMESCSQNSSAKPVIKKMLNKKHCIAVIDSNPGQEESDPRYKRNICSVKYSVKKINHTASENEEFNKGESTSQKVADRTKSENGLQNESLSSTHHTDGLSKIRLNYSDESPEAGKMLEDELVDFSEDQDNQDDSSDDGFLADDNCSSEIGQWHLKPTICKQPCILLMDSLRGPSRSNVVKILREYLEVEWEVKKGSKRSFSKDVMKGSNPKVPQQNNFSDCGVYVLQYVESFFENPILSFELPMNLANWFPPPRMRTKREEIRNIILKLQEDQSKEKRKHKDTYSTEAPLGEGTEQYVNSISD

[2] = target: T2, Histone-lysine N-methyltransferase NSD2 (Homo sapiens, UniProt O96028); type: biochemical
T2 sequence (O96028 whole entry): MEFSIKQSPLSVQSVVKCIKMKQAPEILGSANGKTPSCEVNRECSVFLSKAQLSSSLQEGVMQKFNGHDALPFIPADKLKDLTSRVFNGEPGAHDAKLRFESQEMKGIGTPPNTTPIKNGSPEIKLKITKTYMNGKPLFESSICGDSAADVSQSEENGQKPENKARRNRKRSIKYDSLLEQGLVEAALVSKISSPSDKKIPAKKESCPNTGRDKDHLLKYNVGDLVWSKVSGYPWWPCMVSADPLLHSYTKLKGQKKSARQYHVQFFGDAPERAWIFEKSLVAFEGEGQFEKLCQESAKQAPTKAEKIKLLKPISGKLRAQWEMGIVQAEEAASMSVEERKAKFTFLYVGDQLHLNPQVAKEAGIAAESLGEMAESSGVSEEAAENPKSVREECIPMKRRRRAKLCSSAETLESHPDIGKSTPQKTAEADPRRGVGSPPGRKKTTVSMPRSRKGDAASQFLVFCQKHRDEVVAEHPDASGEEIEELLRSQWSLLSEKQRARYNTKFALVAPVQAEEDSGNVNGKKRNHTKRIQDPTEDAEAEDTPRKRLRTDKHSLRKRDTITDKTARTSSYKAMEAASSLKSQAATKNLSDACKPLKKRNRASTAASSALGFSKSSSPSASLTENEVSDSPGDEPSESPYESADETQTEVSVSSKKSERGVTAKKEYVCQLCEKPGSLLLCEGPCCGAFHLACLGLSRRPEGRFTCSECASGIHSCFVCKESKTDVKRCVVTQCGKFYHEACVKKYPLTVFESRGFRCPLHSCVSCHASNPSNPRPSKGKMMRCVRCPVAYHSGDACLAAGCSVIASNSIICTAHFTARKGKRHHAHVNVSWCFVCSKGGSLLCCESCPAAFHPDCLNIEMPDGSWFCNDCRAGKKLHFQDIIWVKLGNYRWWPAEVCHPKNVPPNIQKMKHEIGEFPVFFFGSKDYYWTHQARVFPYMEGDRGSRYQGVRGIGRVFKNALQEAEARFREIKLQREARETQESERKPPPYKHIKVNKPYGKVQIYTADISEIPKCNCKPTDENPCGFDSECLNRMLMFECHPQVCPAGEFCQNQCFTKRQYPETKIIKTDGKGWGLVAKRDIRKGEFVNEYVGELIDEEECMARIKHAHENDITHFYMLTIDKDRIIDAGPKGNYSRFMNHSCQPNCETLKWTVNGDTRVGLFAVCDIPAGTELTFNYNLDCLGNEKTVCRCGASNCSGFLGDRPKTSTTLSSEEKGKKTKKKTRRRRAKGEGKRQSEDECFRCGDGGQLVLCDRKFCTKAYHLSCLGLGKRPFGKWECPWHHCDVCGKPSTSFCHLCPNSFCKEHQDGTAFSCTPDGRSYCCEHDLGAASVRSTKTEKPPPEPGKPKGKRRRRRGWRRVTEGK

| SMILES | IC50 [1] | AC50 [2] |
| --- | --- | --- |
| CCOC(=O)c1c(NS(=O)(=O)c2ccccc2)n(CCCOC)c2nc3ccccc3nc12 | 0.596 µM (active) | 12.1 µM (active) |
| O=C(COC(=O)c1ccc([N+](=O)[O-])s1)NCCc1ccccc1 | 4.79 µM (active) | > 20 µM (inactive) |
